From PMC2500149 (International Journal of Medical Sciences, 2008)

How the values were obtained:
[1] = statement of the introduction; cited from earlier work
[2] = Solubility of the peptides in water and TFE/water; assay type: physicochemical
[3] = Far UV circular dichroism, TFE polarity titration; assay type: physicochemical; details: aqueous solution, 10% TFE, 100 µg/ml
[4] = test system: cells; details: free peptide without transporter; stated, no experiment described; cited from earlier work

Compound | water solubility [1] | water solubility (in words) [2] | aggregation (inferred from poor water solubility and β-structure in CD) [3] | direct cell permeation / transfer across biomembranes [4]
Cc1ccc(NC(=O)NCCSCc2ccc(CN(C)C)o2)cc1Cl [CAP-1] | limited water solubility |  |  | 
C=C(C)[C@@H]1CC[C@]2(C(=O)O)CC[C@]3(C)[C@H](CC[C@@H]4[C@@]5(C)CC[C@H](OC(=O)CC(C)(C)C(=O)O)C(C)(C)[C@@H]5CC[C@]43C)[C@@H]12 [PA-457] | limited water solubility |  |  | 
ITFEDLLDYYGP [CAI(Pep1)] | limited water solubility |  |  | 
ITFEDLLDYYGPKC [CAI-peptide] |  | water insoluble | oligomeric aggregates are formed | cannot permeate cells directly
